Where a name gives a salt, the structure may show the parent alone.
Legend:
[1] = tested on: EAE induced in SJL mice by PLP139-151/CFA immunization; test: EAE therapeutic model repeated with greater doses, FTY720 reference (Example 4); type: in vivo, mouse
Protocol: To further explore the effect of dosage, the model was repeated, essentially as described in Example 3, using greater doses, specifically 53 μg of ACTH+27 μg of β-endorphin (low dose), and 128 […] of ACTH+64 μg of β-endorphin (high dose). Additionally FTY720 (fingolimod, an FDA-approved drug for the treatment of multiple sclerosis) was used as a reference (positive control) treatment instead of prednisolone, which had not shown strong efficacy in Example 3. FTY720 is one of the most efficacious drugs in both EAE and MS. Immunization was on Day 0, treatment started on Day 20, and the mice were observed through Day 42.
Histological analysis confirmed the clinical findings (Table 9). Histologic readouts were inflammatory foci per section, demyelination (based on anti-myelin basic protein (MBP) staining), and apoptotic cells per section. […] A low number of inflammatory infiltrates confirms absence of both clinical and subclinical inflammation in the CNS. Histological findings in the high dose test group were generally similar to the FTY720 reference group.

[2] = tested on: EAE induced by PLP139-151/CFA Emulsion PTX; test: EAE prophylactic model, treatment from immunization, with pertussis toxin (Example 5); type: in vivo, mouse; settings: 3 mg/kg p.o. daily
Protocol: The efficacy of the combination of ACTH and β-endorphin was also tested in a prophylactic model of EAE. In contrast with the therapeutic model used above, in which treatment is initiated only after EAE onset and recovery from the first wave of the disease, in the prophylactic model, treatment is initiated at the time of immunization and the mice are followed for only 3 weeks. Additionally, pertussis toxin (PTX) is used as an additional adjuvant in the immunization, producing a more sever first wave of disease with slower recovery.
Mice were injected subcutaneously at four sites in the back with 0.05 mL of the emulsion component of HOOKE KIT™ PLP139-151/CFA Emulsion PTX (catalog number EK-2120; Hooke Laboratories, Lawrence Mass.). Two sites of injection were in the upper back approximately 1 cm caudal of the neck line. The other two sites were in the lower back approximately 2 cm cranial of the base of the tail. Two hours later the pertussis toxin component of the kit was administered intraperitoneally. A 30 ng dose of PTX was used to attain optimal disease severity. Mice were administered vehicle or 128 μg ACTH+64 μg β-endorphin by subcutaneous injection every 2nd day, as a negative control and test treatment, respectively. As reference treatment (positive control) mice received 3 mg/kg FTY720 daily by oral administration. There were 12 mice in each of these three groups. The vehicle and test treatment groups were dosed from Day 0 through Day 18 (the last dose in the test treatment group was 88 μg ACTH+44 μg β-endorphin due to lab mishap). The reference treatment group was dosed from Day 0 through Day 19. Clinical scoring was as presented in Table 4 (above) beginning on Day 7 and continuing through Day 20.

[3] = tested on: EAE induced by PLP139-151/CFA Emulsion PTX; settings: past experience with this model; cited from earlier work
[4] = tested on: EAE induced in SJL mice by PLP139-151/CFA immunization; test: EAE late therapeutic model of relapsing-remitting multiple sclerosis, treatment from Day 20 (Example 3); type: in vivo, mouse
Protocol: The effect of administration of two dosages of ACTH and β-endorphin on severity and relapse in EAE was evaluated. EAE was induced in SJL mice by PLP139-151/CFA immunization on Day 0. Treatment was late therapeutic, starting on Day 20 after immunization for each mouse. Mice were observed through the end of the study, Day 42 after immunization. Four groups of 20 mice each received one of the following treatments: vehicle (a negative control); 10 mg/kg oral prednisolone daily (reference treatment); 32 μg ACTH+16 μg endorphin by subcutaneous injection, every 2nd day (low dose); or 64 μg ACTH+32 μg β-endorphin by subcutaneous injection, every 2nd day (high dose).
Mice were injected subcutaneously at four sites in the back with emulsion containing PLP139-151 (native sequence) from HOOKE KIT™ PLP139-151/CFA Emulsion, catalog number EK-0120 (Hooke Laboratories, Lawrence Mass.). Two sites of injection were in the upper back approximately 1 cm caudal of the neck line. The other two sites were in the lower back approximately 2 cm cranial of the base of the tail. The injection volume was 0.05 mL at each site. Even without treatment, most mice recover spontaneously after the first wave of disease. In the SJL model, EAE develops 10-15 days after immunization in 90-100% of immunized mice. The first wave of EAE lasts several days and most mice fully or almost fully recover from this first wave. After a disease-free period, which can last from one day to several months, most mice relapse. During the first 5-7 weeks after immunization, 50-100% of mice will develop a relapse. Each wave of paralysis results in body weight loss at onset, most of which is regained at recovery from the wave. The greatest weight loss is during the first wave of EAE. During the chronic phase of disease, the average EAE body weight is relatively stable, with normal slow increase with age. Since individual mice experience relapses at different times, only a few mice in each group are acutely sick at any given time after the first wave of EAE. Therefore, significant differences in relative body weight between groups are often not found after the first wave of disease in this model. In the vehicle treated group, disease developed as expected for this model. Five (5) mice were euthanized on Day 30 for analysis. Relapse occurred in 7 out of the 15 remaining mice, which were followed to Day 42, with typical course and severity of disease.
100 EAE induced mice were initially considered a single group and were scored daily starting on Day 9 after immunization. […]
Treatment started on the day of group assignment (Day 20 after immunization). […] EAE score was determined daily by a person unaware of both treatment and of previous scores for each mouse. Weight was measured 3 times a week. […]

[5] = per one mg of ACTH, based on rat potency testing; cited from earlier work

CCCCCCCCc1ccc(CCC(N)(CO)CO)cc1 [FTY720, fingolimod]
Apoptotic cells/section ± SD ([1]; 1 mg/kg p.o. QD): 0.3 ± 0.4 cells/section | Demyelination (anti-MBP) ± SD ([1]; 1 mg/kg p.o. QD): 0.1 ± 0.2 | Incidence of relapse ([1]; 1 mg/kg p.o. QD from Day 20): 12.5% | MMS of relapse period ± SD (Days 20-42) ([1]; 1 mg/kg p.o. QD from Day 20): 1.94 ± 0.50 | End % body weight ± SD ([1]; 1 mg/kg p.o. QD from Day 20, % of starting weight): 97.65 ± 5.3% | End score ± SD ([1]; 1 mg/kg p.o. QD from Day 20, Day 42): 1.06 ± 0.62 | Inflammatory foci/section ± SD ([1]; 1 mg/kg p.o. QD, spinal cord histology): 0.5 ± 0.4 foci/section | End % body weight ± SD ([2]; Day 0-19): 98.3% ± 7.8% | MMS ± SD ([2]; Day 0-19): 0.92 ± 1.16 | End score ± SD ([2]; Day 0-19, Day 20): 0.79 ± 1.01 | Median day of onset (all mice) ([2]; Day 0-19, cannot be calculated if ≤50% of mice developed disease): >20.0^1 | EAE incidence (%) ([2]; Day 0 through Day 19, scored through Day 20): 41.7%

COC(=O)/C=C/C(=O)OC [TECFIDERA®, dimethyl fumarate]
Complete suppression of development of EAE [3]: neither COPAXONE® (glatiramer acetate injection) nor TECFIDERA® (dimethyl fumarate) completely suppressed development of EAE

C[C@]12C=CC(=O)C=C1CC[C@@H]1[C@@H]2[C@@H](O)C[C@@]2(C)[C@H]1CC[C@]2(O)C(=O)CO [Prednisolone, prednisolone]
Change in body weight versus vehicle control (FIG. 2) ([4]; 10 mg/kg p.o. daily): statistically significant loss of weight versus the vehicle control | MMS of relapse period ± SD (Days 25-42) ([4]; 10 mg/kg p.o. daily from Day 20, mean maximal score): 2.07 | Iba1 ± SD (% of area) ([4]; 10 mg/kg p.o. daily, microglial activation, % of total spinal cord area): 4.0 ± 1.2 % of area | Mean clinical score over the course of the study (FIG. 1), compared to vehicle ([4]; reference treatment 10 mg/kg p.o. daily): more moderate benefit

ACTH: 39 amino acid peptide, adrenocorticotropic hormone (SYSMEHFRWGKPVGKKRRPVKVYPNGAEDESAEAFPLEF; Corticotropin; UniProt P01189 138-176, looked up)
Potency of ACTH in units [5]: about 150 units
